This assay has as its target T1, TRPC4β-SYFP2 (Homo sapiens, UniProt Q9UBN4).
T1 construct: expressed in transfected cells; host or cells: HEK 293 (ATCC CRL 1573), transiently transfected (jetPRIME)
T1 sequence (Q9UBN4 1-893 isoform Q9UBN4-2): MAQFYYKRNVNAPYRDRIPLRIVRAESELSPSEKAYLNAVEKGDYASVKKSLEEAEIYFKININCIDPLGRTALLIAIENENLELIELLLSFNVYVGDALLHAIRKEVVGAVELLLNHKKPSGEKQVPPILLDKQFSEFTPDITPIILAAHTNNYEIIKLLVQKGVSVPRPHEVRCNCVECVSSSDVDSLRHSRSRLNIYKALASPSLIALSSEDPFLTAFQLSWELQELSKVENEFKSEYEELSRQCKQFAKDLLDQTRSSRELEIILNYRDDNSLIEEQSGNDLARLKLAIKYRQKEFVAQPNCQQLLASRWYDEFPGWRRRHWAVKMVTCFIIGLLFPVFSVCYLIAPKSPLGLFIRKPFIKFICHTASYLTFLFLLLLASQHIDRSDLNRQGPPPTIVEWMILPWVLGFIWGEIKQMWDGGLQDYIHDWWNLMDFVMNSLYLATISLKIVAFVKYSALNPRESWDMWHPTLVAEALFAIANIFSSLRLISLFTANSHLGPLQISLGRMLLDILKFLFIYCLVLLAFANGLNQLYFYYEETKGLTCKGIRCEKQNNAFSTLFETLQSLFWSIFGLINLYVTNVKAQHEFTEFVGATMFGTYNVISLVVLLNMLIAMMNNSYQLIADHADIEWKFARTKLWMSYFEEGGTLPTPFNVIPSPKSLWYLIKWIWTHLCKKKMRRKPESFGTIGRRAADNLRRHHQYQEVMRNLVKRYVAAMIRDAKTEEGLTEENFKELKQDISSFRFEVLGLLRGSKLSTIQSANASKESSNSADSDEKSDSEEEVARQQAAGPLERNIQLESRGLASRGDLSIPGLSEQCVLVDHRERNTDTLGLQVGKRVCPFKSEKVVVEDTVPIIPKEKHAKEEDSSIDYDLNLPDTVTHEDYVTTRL
Briefly: Fura-2 [Ca2+]i recordings, HEK 293 transiently expressing TRPC4β-SYFP2. It counts as cell-based. Conditions: AzHC 10-1000 nM, AM237 100 nM. From the text: Müller, Niemeyer, et al., Schaefer & Thorn-Seshold 2025: Ideal Efficacy Photoswitching of TRPC4/5 in Tissue […]
1.4.4 Differences and selectivity between TRPC5 and TRPC4?
AM237 activates TRPC5 but inhibits EA mediated activation of TRPC4; Pico145 inhibits both TRPC4 and TRPC5. Thus, somewhat naively, it could be argued that it is the para substituent here which affects both the efficacy mode and the selectivity for TRPC4 and/or TRPC5.
Intriguingly, Z-AzPico activates TRPC4 and TRPC5 with low nanomolar potency whereas Z-AzHC only activates TRPC5 but not TRPC4. Therefore, the meta substituent is now responsible for the selectivity in this case. The cryo-EM structures of Pico145 and HC-070 in complex with TRPC5 indicated the same binding site but the southern phenyl ring bearing the OCF3/Cl group is flipped and pointing in opposite directions.
Z isomers, i.e. Z-buried vs. E-projected. Additionally, both E-AzPico and E-AzHC inhibit EA […]
It is not surprising that both ligands bind to either protein because there is a high sequence similarity among the TRPC family in the identified binding pocket for Pico145 /HC-070, and in the binding region, human TRPC4/5 differ only by a single amino acid (TRPC5: V579, TRPC4: I579). We […]
the result of differences in this residue. […]
Intracellular calcium ([Ca2+]i) was measured using the ratiometric Ca2+ dye Fura-2. […]

For `Cn1c(=O)n(CCCO)c(=O)c2c1nc(Oc1ccc(Cl)c(OC(F)(F)F)c1)n2Cc1ccc(Cl)cc1` [AM237, reference compound], the “Effect on [Ca2+]i, TRPC4” value is “do not activate”. As for `Cn1c(=O)n(CCCO)c(=O)c2c1nc(Oc1ccc(/N=N\c3ccccc3)c(Cl)c1)n2Cc1ccc(Cl)cc1` [Z*-AzHC], the “Effect on [Ca2+]i, TRPC4” value is “do not activate”.

Values taken from publication PMC12858405, “Ideal efficacy photoswitching for chromocontrol of TRPC4/5 channel functions in live tissues” (Nature Chemical Biology, 2026).
